Results: US20260224577A1, “METHODS OF TREATING HEART FAILURE WITH VIBEGRON” (SUMITOMO PHARMA CO., LTD., priority 2021, published 2026)
pEC50: −log10 of the molar value.

How the values were obtained:
β2-adrenergic receptor = target: T1, β2-adrenergic receptor (Homo sapiens, UniProt P07550); test: Functional cellular cAMP (HTRF) assay, CHO cells expressing β2-ARs; format: cell-based; settings: relative to procaterol
T1 construct: expressed in transfected cells; host or cells: CHO
Protocol: (§1) The potency and maximal effect of vibegron and mirabegron for β3-adrenergic receptors and the selectivity for each […] receptor were determined. Functional cellular assays for vibegron and mirabegron activity were performed using Chinese hamster ovary (CHO) cells expressing β1- or β2-ARs and human embryonic kidney (HEK) 293 cells expressing β3-ARs. Cells were incubated with vibegron, mirabegron, or the appropriate control (isoproterenol for β1 and β3, procaterol for β2). Responses were quantified using homogeneous time-resolved fluorescence of cyclic adenosine monophosphate. Half-maximal effective concentration (EC50) and maximum response (Emax) values were determined by nonlinear least-squares regression analysis.

β3-adrenergic receptor = target: T2, β3-adrenergic receptor (Homo sapiens, UniProt P13945); test: Functional cellular cAMP (HTRF) assay, HEK293 cells expressing β3-ARs; format: cell-based
T2 construct: expressed in transfected cells; host or cells: HEK293
T2 sequence (P13945 whole entry): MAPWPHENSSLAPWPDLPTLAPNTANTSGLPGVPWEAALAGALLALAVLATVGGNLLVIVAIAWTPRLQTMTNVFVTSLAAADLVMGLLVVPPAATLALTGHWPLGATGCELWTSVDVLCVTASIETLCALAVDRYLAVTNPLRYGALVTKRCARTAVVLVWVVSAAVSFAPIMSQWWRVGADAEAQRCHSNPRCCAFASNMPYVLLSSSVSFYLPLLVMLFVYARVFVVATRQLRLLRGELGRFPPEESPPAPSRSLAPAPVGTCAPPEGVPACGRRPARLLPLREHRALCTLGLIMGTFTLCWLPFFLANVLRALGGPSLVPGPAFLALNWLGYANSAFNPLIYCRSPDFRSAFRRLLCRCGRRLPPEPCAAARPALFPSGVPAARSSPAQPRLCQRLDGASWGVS
Protocol: as §1

[1] = tested on: subjects with NYHA class II-III HF and LVEF <40%; settings: BEAT-HF trial; cited from earlier work
β1-adrenergic receptor = target: T3, β1-adrenergic receptor (Homo sapiens, UniProt P08588); test: Functional cellular cAMP (HTRF) assay, CHO cells expressing β1-ARs; format: cell-based; settings: relative to isoproterenol
T3 construct: expressed in transfected cells; host or cells: CHO
T3 sequence (P08588 whole entry): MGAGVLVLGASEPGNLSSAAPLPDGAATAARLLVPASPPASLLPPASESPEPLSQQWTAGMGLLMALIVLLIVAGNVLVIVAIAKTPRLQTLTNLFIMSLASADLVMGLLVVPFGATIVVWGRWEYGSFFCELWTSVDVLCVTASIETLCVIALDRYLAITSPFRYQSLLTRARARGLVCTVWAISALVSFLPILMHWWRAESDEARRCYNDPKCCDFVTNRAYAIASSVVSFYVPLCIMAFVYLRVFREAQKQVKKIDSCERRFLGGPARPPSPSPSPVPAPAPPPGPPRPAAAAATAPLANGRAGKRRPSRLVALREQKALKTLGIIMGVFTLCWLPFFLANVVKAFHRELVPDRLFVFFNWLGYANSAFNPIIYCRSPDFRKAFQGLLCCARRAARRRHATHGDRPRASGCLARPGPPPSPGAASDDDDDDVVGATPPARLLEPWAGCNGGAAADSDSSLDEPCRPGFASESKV
Protocol: as §1

[2] = tested on: elderly patients with heart failure, including a subgroup with HFpEF; settings: cited from earlier work

T1 sequence (P07550 whole entry): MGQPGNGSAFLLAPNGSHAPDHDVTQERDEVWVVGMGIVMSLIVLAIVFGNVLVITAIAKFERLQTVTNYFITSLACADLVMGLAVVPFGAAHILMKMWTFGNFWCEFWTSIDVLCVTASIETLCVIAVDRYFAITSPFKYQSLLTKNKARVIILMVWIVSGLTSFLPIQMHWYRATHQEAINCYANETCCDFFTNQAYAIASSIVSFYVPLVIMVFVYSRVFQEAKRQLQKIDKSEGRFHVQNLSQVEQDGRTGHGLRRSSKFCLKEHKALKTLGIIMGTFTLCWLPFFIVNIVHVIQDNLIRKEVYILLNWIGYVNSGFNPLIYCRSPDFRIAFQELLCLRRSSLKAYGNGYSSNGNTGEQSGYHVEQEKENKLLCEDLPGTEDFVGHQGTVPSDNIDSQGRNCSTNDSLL

SMILES	β2-adrenergic activity (% Activity) (β2-adrenergic receptor) [%]	β3-adrenergic activity relative to isoproterenol (% Activity) (β3-adrenergic receptor; 10 μM, HEK293 cells) [%]	Emax (β3-adrenergic receptor; HEK293, estimated by nonlinear least-squares regression, read-out: Emax (maximum response) at the β3-AR) [%]	pEC50 (β3-adrenergic receptor; HEK293 cells expressing β3-ARs, cAMP, read-out: Mean (SEM) EC50 at the β3-AR)	Primary endpoint (change in LVEF) [1]	β1-adrenergic activity (% Activity) (β1-adrenergic receptor) [%]	Treatment of heart failure [2]
Nc1nc(CC(=O)Nc2ccc(CCNC[C@H](O)c3ccccc3)cc2)cs1 [Mirabegron]	15	88	80.4	8.00	failed to meet the primary endpoint	3	–
OC(CNCC(O)C1CCc2cc(F)ccc2O1)C1CCc2cc(F)ccc2O1 (stereo not shown) [nebivolol]	–	–	–	–	–	–	some success in treating heart failure in elderly patients
